In US9187484B2 (Southern Research Institute, priority 2012, dated 2015):

Target: T1, LRRK2 (G2019S) (Homo sapiens, UniProt Q5S007, G2019S)
T1 construct: Recombinant GST-LRRK2 (delta970), purified from baculovirus infected insect cells (SF9); GST (N); host or cells: baculovirus infected insect cells (SF9)
Assay: LRRK2 inhibition, radiometric kinase assay with recombinant GST-LRRK2 (delta970) and peptide substrate
Type: biochemical
Conditions: GST-LRRK2 (delta970) G2019S 30 nM, ATP ~52 μM (Km), 30 min at 30° C.
Method: Compounds were assessed for inhibition of LRRK2 inhibition using the following procedure.
Recombinant GST-LRRK2 (delta970), purified from baculovirus infected insect cells (SF9), at least 90% pure and either wild-type sequence or bearing the pathogenic G2019S mutation, was combined into a kinase buffer at 30 nM concentration. Kinase buffer consists of 50 mM Tris HCl pH 7.4, 1 mM EDTA, and 50 μM peptide substrate (amino acid sequence […]). Experimental compounds or control (no compound) were added at desired concentrations in DMSO and water, where final concentration of DMSO in kinase reactions was 0.1% for all drug concentrations. Activation buffer that consists of a final concentration in the reactions of 10 mM MgCl2 and ATP (˜92 μM for WT-LRRK2 reactions and ˜52 μM for G2019S-LRRK2, which represent respective Km ATP concentrations) were added to each reaction, in addition to 0.5 μCi of gamma-32-P-dATP per reaction. Reactions were incubated at 1400 RPM at 30° C. for 30 min. and then spotted in triplicate directly onto a slot-blot apparatus fitted with phospho-cellulose paper and allowed to dry. Each slot was then washed with 10 mM phosphoric acid buffer until beta-radiation could not be detected in eluted wash buffer, usually ˜1 mL per slot. Paper within each slot were excised and radiation measured by liquid scintillation.

T1 sequence (Q5S007 970-2527 G2019S limits assumed): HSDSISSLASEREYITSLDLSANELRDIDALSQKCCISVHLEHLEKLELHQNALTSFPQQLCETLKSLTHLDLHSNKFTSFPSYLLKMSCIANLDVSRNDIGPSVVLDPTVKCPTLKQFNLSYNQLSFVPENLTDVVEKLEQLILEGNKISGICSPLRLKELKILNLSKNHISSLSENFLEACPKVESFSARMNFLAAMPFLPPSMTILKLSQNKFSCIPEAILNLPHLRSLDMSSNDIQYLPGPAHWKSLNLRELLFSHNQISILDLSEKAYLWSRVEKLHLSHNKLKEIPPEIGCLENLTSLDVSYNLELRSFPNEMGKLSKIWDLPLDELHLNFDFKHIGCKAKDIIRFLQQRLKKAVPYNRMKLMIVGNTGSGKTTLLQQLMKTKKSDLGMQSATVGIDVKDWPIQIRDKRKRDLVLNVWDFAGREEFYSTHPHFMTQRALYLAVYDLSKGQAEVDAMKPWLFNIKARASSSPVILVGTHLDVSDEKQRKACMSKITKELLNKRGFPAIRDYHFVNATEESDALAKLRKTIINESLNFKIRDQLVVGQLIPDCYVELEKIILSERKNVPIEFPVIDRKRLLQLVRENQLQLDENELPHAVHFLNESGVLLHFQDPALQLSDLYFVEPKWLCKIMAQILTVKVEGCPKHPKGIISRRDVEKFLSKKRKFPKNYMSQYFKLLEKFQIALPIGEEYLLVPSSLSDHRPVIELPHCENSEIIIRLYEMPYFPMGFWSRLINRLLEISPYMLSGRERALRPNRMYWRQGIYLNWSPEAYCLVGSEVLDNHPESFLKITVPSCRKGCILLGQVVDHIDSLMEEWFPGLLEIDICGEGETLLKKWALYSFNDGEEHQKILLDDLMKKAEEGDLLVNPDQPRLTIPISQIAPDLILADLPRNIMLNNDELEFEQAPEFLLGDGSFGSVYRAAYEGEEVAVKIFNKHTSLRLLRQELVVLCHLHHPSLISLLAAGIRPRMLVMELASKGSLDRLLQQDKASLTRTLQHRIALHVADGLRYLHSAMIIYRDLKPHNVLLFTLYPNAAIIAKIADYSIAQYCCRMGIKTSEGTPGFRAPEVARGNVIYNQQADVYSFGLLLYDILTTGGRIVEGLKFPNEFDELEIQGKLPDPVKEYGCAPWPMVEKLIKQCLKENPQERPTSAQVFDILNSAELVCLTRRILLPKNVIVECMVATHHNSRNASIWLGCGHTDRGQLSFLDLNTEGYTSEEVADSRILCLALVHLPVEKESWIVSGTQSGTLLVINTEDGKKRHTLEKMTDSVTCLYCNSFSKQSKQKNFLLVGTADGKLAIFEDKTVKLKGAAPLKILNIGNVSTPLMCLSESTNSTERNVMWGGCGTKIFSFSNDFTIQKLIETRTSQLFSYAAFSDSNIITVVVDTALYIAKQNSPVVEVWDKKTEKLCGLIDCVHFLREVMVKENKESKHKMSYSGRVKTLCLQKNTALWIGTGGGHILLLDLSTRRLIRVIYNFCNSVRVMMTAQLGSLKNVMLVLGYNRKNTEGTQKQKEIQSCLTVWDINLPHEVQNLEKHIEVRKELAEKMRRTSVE

| IC50 [nM] | Compound |
| --- | --- |
| 1000 to 5000 | NC(=O)CSc1ccc2nnc(C3CCCC3)n2n1 [Example 15, 2-((3-cyclopentyl-[1,2,4]triazolo[4,3-b]pyridazin-6-yl)thio)acetamide] |
| 1000 to 5000 | CCC(Sc1ccc2nnc(-c3ccc(F)c(F)c3)n2n1)C(N)=O (stereo not drawn) [Example 79, 2-((3-(3,4-difluorophenyl)-[1,2,4]triazolo[4,3-b]pyridazin-6-yl)thio)butanamide] |
| ≥ 5000 | Cc1scc(-c2nnc3ccc(SCC(N)=O)nn23)c1-c1ccccc1 [Example 40, 2-((3-(5-methyl-4-phenylthiophen-3-yl)-[1,2,4]triazolo[4,3-b]pyridazin-6-yl)thio)acetamide] |
| 1000 to 5000 | CCC(Sc1ccc2nnc(-c3ccc(C(F)(F)F)cc3)n2n1)C(=O)N1CCCCC1 (stereo not drawn) [Example 95, 1-(piperidin-1-yl)-2-((3-(4-(trifluoromethyl)phenyl)-[1,2,4]triazolo[4,3-b]pyridazin-6-yl)thio)butan-1-one] |
| 100 to 1000 | NC(=O)CSc1ccc2nnc(-c3ccsc3)n2n1 [Example 5, 2-((3-(thiophen-3-yl)-[1,2,4]triazolo[4,3-b]pyridazin-6-yl)thio)acetamide] |
| 1000 to 5000 | CCOC(=O)C1CCCN(C(=O)C(CC)Sc2ccc3nnc(-c4cccs4)n3n2)C1 (stereo not drawn) [Example 103, ethyl 1-(2-((3-(thiophen-2-yl)-[1,2,4]triazolo[4,3-b]pyridazin-6-yl)thio)butanoyl)piperidine-3-carboxylate] |
| 100 to 1000 | O=C(CSc1ccc2nnc(-c3cccs3)n2n1)N1CCCC1 [Example 21, 1-(pyrrolidin-1-yl)-2-((3-(thiophen-2-yl)-[1,2,4]triazolo[4,3-b]pyridazin-6-yl)thio)ethanone] |
| 100 to 1000 | CCC(Sc1ccc2nnc(-c3ccccc3F)n2n1)C(N)=O (stereo not drawn) [Example 80, 2-((3-(2-fluorophenyl)-[1,2,4]triazolo[4,3-b]pyridazin-6-yl)thio)butanamide] |
| 100 to 1000 | CCC(Sc1ccc2nnc(-c3cccc(OC)c3)n2n1)C(=O)N1CCCCC1 (stereo not drawn) [Example 73, 2-((3-(3-methoxyphenyl)-[1,2,4]triazolo[4,3-b]pyridazin-6-yl)thio)-1-(piperidin-1-yl)butan-1-one] |
| ≥ 5000 | CCC(Sc1ccc2nnc(-c3ccc(Cl)s3)n2n1)C(=O)O (stereo not drawn) [Example 61, 2-((3-(5-chlorothiophen-2-yl)-[1,2,4]triazolo[4,3-b]pyridazin-6-yl)thio)butanoic acid] |
| < 100 | CC(Sc1ccc2nnc(-c3cccs3)n2n1)C(=O)N1CCC1 (stereo not drawn) [Example 101, 1-(azetidin-1-yl)-2-((3-(thiophen-2-yl)-[1,2,4]triazolo[4,3-b]pyridazin-6-yl)thio)propan-1-one] |
| 100 to 1000 | CCCC(Sc1ccc2nnc(-c3cccs3)n2n1)C(=O)N1CCCCC1 (stereo not drawn) [Example 93, 1-(piperidin-1-yl)-2-((3-(thiophen-2-yl)-[1,2,4]triazolo[4,3-b]pyridazin-6-yl)thio)pentan-1-one] |
| 100 to 1000 | CC(Sc1ccc2nnc(-c3ncccn3)n2n1)C(=O)N1CCCCC1 (stereo not drawn) [Example 109, 1-(piperidin-1-yl)-2-((3-(pyrimidin-2-yl)-[1,2,4]triazolo[4,3-b]pyridazin-6-yl)thio)propan-1-one] |
| ≥ 5000 | NC(=O)CSc1ccc2nnc(-c3cc4ccccc4o3)n2n1 [Example 32, 2-((3-(benzofuran-2-yl)-[1,2,4]triazolo[4,3-b]pyridazin-6-yl)thio)acetamide] |
| 100 to 1000 | CC(Sc1ccc2nnc(-c3ccn[nH]3)n2n1)C(=O)N1CCCCC1 (stereo not drawn) [Example 115, 2-((3-(1H-pyrazol-5-yl)-[1,2,4]triazolo[4,3-b]pyridazin-6-yl)thio)-1-(piperidin-1-yl)propan-1-one] |
| 100 to 1000 | CCC(Sc1ccc2nnc(-c3nccs3)n2n1)C(=O)O (stereo not drawn) [Example 33, 2-((3-(thiazol-2-yl)-[1,2,4]triazolo[4,3-b]pyridazin-6-yl)thio)butanoic acid] |
| 100 to 1000 | CC(Sc1ccc2nnc(-c3cscn3)n2n1)C(=O)N1CCCC1 (stereo not drawn) [Example 111, 1-(pyrrolidin-1-yl)-2-((3-(thiazol-4-yl)-[1,2,4]triazolo[4,3-b]pyridazin-6-yl)thio)propan-1-one] |
| 100 to 1000 | CCCC(Sc1ccc2nnc(-c3cccs3)n2n1)C(=O)O (stereo not drawn) [Example 92, 2-((3-(thiophen-2-yl)-[1,2,4]triazolo[4,3-b]pyridazin-6-yl)thio)pentanoic acid] |
| ≥ 5000 | CCC(Sc1ccc2nnc(-c3cccs3)n2n1)C(=O)N1CCN(C)CC1 (stereo not drawn) [Example 58, 1-(4-methylpiperazin-1-yl)-2-((3-(thiophen-2-yl)-[1,2,4]triazolo[4,3-b]pyridazin-6-yl)thio)butan-1-one] |
| ≥ 5000 | NC(=O)CSc1ccc2nnc(-c3ccncc3)n2n1 [Example 4, 2-((3-(pyridin-4-yl)-[1,2,4]triazolo[4,3-b]pyridazin-6-yl)thio)acetamide] |
| ≥ 5000 | CCOC(=O)C(CC)Sc1ccc2nnc(-c3ccc(F)cc3)n2n1 (stereo not drawn) [Example 1, ethyl 2-((3-(4-fluorophenyl)-[1,2,4]triazolo[4,3-b]pyridazin-6-yl)thio)butanoate] |
| ≥ 5000 | CC(Sc1ccc2nnc(-c3ccnn3C)n2n1)C(=O)N1CCCCC1 (stereo not drawn) [Example 112, 2-((3-(1-methyl-1H-pyrazol-5-yl)-[1,2,4]triazolo[4,3-b]pyridazin-6-yl)thio)-1-(piperidin-1-yl)propan-1-one] |
| 100 to 1000 | CCC(Sc1ccc2nnc(-c3cccs3)n2n1)C(=O)N1CCCC(C)C1 (stereo not drawn) [Example 51, 1-(3-methylpiperidin-1-yl)-2-((3-(thiophen-2-yl)-[1,2,4]triazolo[4,3-b]pyridazin-6-yl)thio)butan-1-one] |
| 100 to 1000 | CC(Sc1ccc2nnc(-c3nccs3)n2n1)C(=O)O (stereo not drawn) [Example 124, 2-((3-(thiazol-2-yl)-[1,2,4]triazolo[4,3-b]pyridazin-6-yl)thio)propanoic acid] |
| 1000 to 5000 | Cc1ccc(-c2nnc3ccc(SCC(=O)N4CCCC4)nn23)cc1 [Example 25, 1-(pyrrolidin-1-yl)-2-((3-(p-tolyl)-[1,2,4]triazolo[4,3-b]pyridazin-6-yl)thio)ethanone] |
| 100 to 1000 | CCC(Sc1ccc2nnc(-c3ccccc3F)n2n1)C(=O)N1CCCCC1 (stereo not drawn) [Example 94, 2-((3-(2-fluorophenyl)-[1,2,4]triazolo[4,3-b]pyridazin-6-yl)thio)-1-(piperidin-1-yl)butan-1-one] |
| ≥ 5000 | CCC(Nc1ccc2nnc(-c3cccs3)n2n1)C(=O)OC (stereo not drawn) [Example 98, methyl 2-((3-(thiophen-2-yl)-[1,2,4]triazolo[4,3-b]pyridazin-6-yl)amino)butanoate] |
| 1000 to 5000 | CCOC(=O)C(CC)Sc1ccc2nnc(-c3cccc(F)c3)n2n1 (stereo not drawn) [Example 75, ethyl 2-((3-(3-fluorophenyl)-[1,2,4]triazolo[4,3-b]pyridazin-6-yl)thio)butanoate] |
| ≥ 5000 | O=C(O)CSc1ccc2nnc(-c3ccc(F)cc3)n2n1 [Example 17, 2-((3-(4-fluorophenyl)-[1,2,4]triazolo[4,3-b]pyridazin-6-yl)thio)acetic acid] |
| 100 to 1000 | CCC(Sc1ccc2nnc(-c3ccsc3)n2n1)C(=O)N1CCCCC1 (stereo not drawn) [Example 64, 1-(piperidin-1-yl)-2-((3-(thiophen-3-yl)-[1,2,4]triazolo[4,3-b]pyridazin-6-yl)thio)butan-1-one] |
